Measurements published in US12492183B2, “Tetrahydroquinazoline derivatives as selective cytotoxic agents” (Merck Sharp & Dohme LLC, priority 2020, dated 2025).

Tested on: PBMCs infected with VSV-G pseudotyped HIV virus (VSV-G/pNLG1-P2A-ΔEnv)
Test: cells
Type: cell-based
Details: Homo sapiens, PBMC, read-out: TACK EC50

## Nc1ncc(F)c(Cc2cc3c(cc2Cl)[C@@](C#CC2CC2)(C(F)(F)F)NC(=O)N3)n1 [Example 32, (S)-7-((2-amino-5-fluoropyr-imidin-4-yl)methyl)-6-chloro-4-(cyclopropylethynyl)-4-(trifluoromethyl)-3,4-dihydro-quinazolin-2(1H)-one]
  EC50: 156 nM

## Cc1cc2c(cc1Cc1ccnc(N)n1)NC(=O)N[C@]2(C#CC1CC1)C(F)(F)F [Example 33, (S)-7-((2-aminopyrimidin-4-yl)methyl)-4-(cyclopropyl-ethynyl)-6-methyl-4-(trifluoro-methyl)-3,4-dihydroquinazo-lin-2(1H)-one]
  EC50: 183 nM

## Cc1cnc(N)nc1Cc1ccc2c(c1)NC(=O)N[C@]2(C#CC1CC1)C(F)(F)F [Example 34, (S)-7-((2-amino-5-methylpyr-imidin-4-yl)methyl)-4-(cyclo-propylethynyl)-4-(trifluoro-methyl)-3,4-dihydroquinazo-lin-2(1H)-one]
  EC50: 155 nM

## Nc1cccc(Cc2ccc3c(c2)NC(=O)N[C@]3(C#CC2CC2)C(F)(F)F)n1 [Example 35, (S)-7-((6-aminopyridin-2-yl)methyl)-4-(cyclopropylethynyl)-4-(trifluoromethyl)-3,4-dihydroquinazolin-2(1H)-one]
  EC50: 106 nM

## Nc1ccc(F)c(Cc2ccc3c(c2)NC(=O)N[C@]3(C#CC2CC2)C(F)(F)F)n1 [Example 36, (S)-7-((6-amino-3-fluoro-pyridin-2-yl)methyl)-4-(cyclopropylethynyl)-4-(trifluoromethyl)-3,4-dihydroquinazolin-2(1H)-one]
  EC50: 155 nM

## Nc1cc(Cc2ccc3c(c2)NC(=O)N[C@]3(C#CC2CC2)C(F)(F)F)c(F)cn1 [Example 37, (S)-7-((2-amino-5-fluoro-pyridin-4-yl)methyl)-4-(cyclopropylethynyl)-4-(trifluoromethyl)-3,4-dihydroquinazolin-2(1H)-one]
  EC50: 168 nM

## Nc1nccc(Cc2cc3c(cc2F)[C@@](C#CC2CC2)(C(F)(F)F)NC(=O)N3)n1 [Example 38, (S)-7-((2-aminopyrimidin-4-yl)methyl)-4-(cyclopropylethynyl)-6-fluoro-4-(trifluoromethyl)-3,4-dihydroquinazolin-2(1H)-one]
  EC50: 38.6 nM

## CN1C(=O)Nc2cc(Cc3ccnc(N)n3)ccc2[C@@]1(C#CC1CC1)C(F)(F)F [Example 39, (S)-7-((2-aminopyrimidin-4-yl)methyl)-4-(cyclopropylethynyl)-3-methyl-4-(trifluoromethyl)-3,4-dihydroquinazolin-2(1H)-one]
  EC50: 60.3 nM

## O=C1Nc2cc(Cc3ccc(CO)cn3)c(F)cc2[C@@](C#CC2CC2)(C(F)(F)F)N1 [Example 41, (S)-2-((4-(cyclopropylethynyl)-6-fluoro-2-oxo-4-(trifluoromethyl)-1,2,3,4-tetrahydroquinazolin-7-yl)methyl)-5-(hydroxymethyl)pyridin-1-ium 2,2,2-trifluoroacetate]
  EC50: 90.7 nM

## O=C1Nc2cc(Cc3ccc(OCCO)cn3)c(F)cc2[C@@](C#CC2CC2)(C(F)(F)F)N1 [Example 42, (S)-4-(cyclopropylethynyl)-6-fluoro-7-((5-(2-hydroxyethoxy)pyridin-2-yl)methyl)-4-(trifluoromethyl)-3,4-dihydroquinazolin-2(1H)-one]
  EC50: 161 nM

## N#Cc1cc(Cc2cc3c(cc2F)[C@@](C#CC2CC2)(C(F)(F)F)NC(=O)N3)[n+]([O-])cc1OCCO [Example 43, (S)-4-cyano-2-((4-(cyclopropylethynyl)-6-fluoro-2-oxo-4-(trifluoromethyl)-1,2,3,4-tetrahydroquinazolin-7-yl)methyl)-5-(2-hydroxyethoxy)pyridine 1-oxide]
  EC50: 166 nM

## NS(=O)(=O)c1ccc(Cc2ccc3c(c2)NC(=S)N[C@]3(C#CC2CC2)C(F)(F)F)cc1 [Example 44, (S)-4-((4-(cyclopropylethynyl)-2-thioxo-4-(trifluoromethyl)-1,2,3,4-tetrahydroquinazolin-7-yl)methyl)benzenesulfonamide]
  EC50: 180 nM

## Nc1nc(Cc2ccc3c(c2)NC(=O)N[C@]3(C#CC2CC2)C(F)(F)F)ccc1CO [Example 45, (S)-7-((6-amino-5-(hydroxymethyl)pyridin-2-yl)methyl)-4-(cyclopropylethynyl)-4-(trifluoromethyl)-3,4-dihydroquinazolin-2(1H)-one]
  EC50: 53.2 nM

## Nc1nc(Cc2cc3c(cc2F)[C@@](C#CC2CC2)(C(F)(F)F)NC(=O)N3)cnc1CO [Example 46, (S)-7-((6-amino-5-(hydroxymethyl)pyrazin-2-yl)methyl)-4-(cyclopropylethynyl)-6-fluoro-4-(trifluoromethyl)-3,4-dihydroquinazolin-2(1H)-one]
  EC50: 108 nM

## CC(F)(F)[C@@]1(C#CC2CC2)NC(=O)Nc2cc(Cc3ccnc(N)n3)c(F)cc21 [Example 47, (S)-7-((2-aminopyrimidin-4-yl)methyl)-4-(cyclopropylethynyl)-4-(1,1-difluoroethyl)-6-fluoro-3,4-dihydroquinazolin-2(1H)-one]
  EC50: 17.1 nM

## Nc1nc(Cl)cc(Cc2ccc3c(c2)NC(=O)N[C@]3(C#CC2CC2)C(F)(F)F)n1 [Example 48, (S)-7-((2-amino-6-chloropyrimidin-4-yl)methyl)-4-(cyclopropylethynyl)-4-(trifluoromethyl)-3,4-dihydroquinazolin-2(1H)-one]
  EC50: 142 nM

## Nc1ncnc(Cc2ccc3c(c2)NC(=O)N[C@]3(C#CC2CC2)C(F)(F)F)n1 [Example 49, (S)-7-((4-amino-1,3,5-triazin-2-yl)methyl)-4-(cyclopropyl-ethynyl)-4-(trifluoromethyl)-3,4-dihydroquinazolin-2(1H)-one]
  EC50: 146 nM

## N#Cc1c(Cc2ccc3c(c2)NC(=O)N[C@]3(C#CC2CC2)C(F)(F)F)ccnc1N [Example 50, (S)-2-amino-4-((4-(cyclo-propylethynyl)-2-oxo-4-(trifluoromethyl)-1,2,3,4-tetrahydroquinazolin-7-yl)-methyl)nicotinonitrile]
  EC50: 34.9 nM

## O=C1Nc2cc(Cc3cnccn3)c(F)cc2[C@@](C#CC2CC2)(C(F)(F)F)N1 [Example 51, (S)-4-(cyclopropylethynyl)-6-fluoro-7-(pyrazin-2-ylmeth-yl)-4-(trifluoromethyl)-3,4-dihydroquinazolin-2(1H)-one]
  EC50: 96.4 nM

## N#Cc1c(Cc2cc3c(cc2F)[C@@](C#CC2CC2)(C(F)(F)F)NC(=O)N3)ccnc1N [Example 52, (S)-2-amino-4-((4-(cyclo-propylethynyl)-6-fluoro-2-oxo-4-(trifluoromethyl)-1,2,3,4-tetrahydroquinazolin-7-yl)methyl)nicotinonitrile]
  EC50: 21.4 nM

## O=C1Nc2cc(Cc3ccccn3)c(F)cc2[C@@](C#CC2CC2)(C(F)(F)F)N1 [Example 53, (S)-4-(cyclopropylethynyl)-6-fluoro-7-(pyridin-2-ylmeth-yl)-4-(trifluoromethyl)-3,4-dihydroquinazolin-2(1H)-one]
  EC50: 137 nM

## Nc1cncc(Cc2ccc3c(c2)NC(=O)N[C@]3(C#CC2CC2)C(F)(F)F)n1 [Example 54, (S)-7-((6-aminopyrazin-2-yl)-methyl)-4-(cyclopropyl-ethynyl)-4-(trifluoromethyl)-3,4-dihydroquinazolin-2(1H)-one]
  EC50: 67.3 nM

## NC(=O)c1c(Cc2ccc3c(c2)NC(=O)N[C@]3(C#CC2CC2)C(F)(F)F)ccnc1N [Example 55]
  EC50: 191 nM

## N#Cc1cnccc1Cc1cc2c(cc1F)[C@@](C#CC1CC1)(C(F)(F)F)NC(=O)N2 [Example 56, (S)-4-((4-(cyclopropylethynyl)-6-fluoro-2-oxo-4-(trifluoromethyl)-1,2,3,4-tetrahydroquinazolin-7-yl)methyl)nicotinonitrile]
  EC50: 83.5 nM

## O=C1Nc2cc(Cc3ccncc3)c(F)cc2[C@@](C#CC2CC2)(C(F)(F)F)N1 [Example 57, (S)-4-(cyclopropylethynyl)-6-fluoro-7-(pyridin-4-ylmethyl)-4-(trifluoromethyl)-3,4-dihydroquinazolin-2(1H)-one]
  EC50: 120 nM

## CC(F)(F)[C@@]1(C#CC2CC2)NC(=O)Nc2cc(Cc3nc(N)ncc3F)ccc21 [Example 58, (S)-7-((2-amino-5-fluoropyrimidin-4-yl)methyl)-4-(cyclopropylethynyl)-4-(1,1-difluoroethyl)-3,4-dihydroquinazolin-2(1H)-one]
  EC50: 82.8 nM

## Nc1nccc(Cc2c(F)cc3c(c2F)NC(=O)N[C@]3(C#CC2CC2)C(F)(F)F)n1 [Example 59, (S)-7-((2-aminopyrimidin-4-yl)methyl)-4-(cyclopropylethynyl)-6,8-difluoro-4-(trifluoromethyl)-3,4-dihydroquinazolin-2(1H)-one]
  EC50: 122 nM

## O=C1Nc2cc(Cc3ncc[nH]c3=O)ccc2[C@@](C#CC2CC2)(C(F)(F)F)N1 [Example 61, (S)-4-(cyclopropylethynyl)-7-((3-hydroxypyrazin-2-yl)methyl)-4-(trifluoromethyl)-3,4-dihydroquinazolin-2(1H)-one]
  EC50: 65 nM

## Cc1nc(CO)[nH]c(=O)c1Cc1ccc2c(c1)NC(=O)N[C@]2(C#CC1CC1)C(F)(F)F [Example 63, (S)-4-(cyclopropylethynyl)-7-((2-(hydroxymethyl)-4-methyl-6-oxo-1,6-dihydropyrimidin-5-yl)methyl)-4-(trifluoromethyl)-3,4-dihydroquinazolin-2(1H)-one]
  EC50: 176 nM
